# According to PubChem BioAssay AID1259407 (Chemical Carcinogenesis Research Information System (CCRIS), 2018):
# The source made the active and inactive calls. The rule behind the calls is not given here.
# System: CCRIS mutagenicity, Ames/micronucleus/aberration tests
# Assay: CCRIS mutagenicity studies
# [1] = Test System: AMES SALMONELLA TYPHIMURIUM, Strain/Indicator: TA98, Metabolic Activation: NONE, Method: PREINCUBATION
# [2] = Test System: AMES SALMONELLA TYPHIMURIUM, Strain/Indicator: TA98, Metabolic Activation: NONE, Method: STANDARD PLATE
# [3] = Test System: AMES SALMONELLA TYPHIMURIUM, Strain/Indicator: TA98, Metabolic Activation: RAT, LIVER, S-9, AROCLOR 1254, Method: PREINCUBATION
# [4] = Test System: AMES SALMONELLA TYPHIMURIUM, Strain/Indicator: TA100, Metabolic Activation: NONE, Method: STANDARD PLATE
# [5] = Test System: AMES SALMONELLA TYPHIMURIUM, Strain/Indicator: TA100, Metabolic Activation: RAT, LIVER, S-9, AROCLOR 1254, Method: PREINCUBATION
# [6] = Test System: AMES SALMONELLA TYPHIMURIUM, Strain/Indicator: TA100, Metabolic Activation: NONE, Method: PREINCUBATION
compound,measurement,setting,value
O=NN1CCSC1,mutagenic call,[1],inactive; negative
same,mutagenic call,[2],inactive; negative
same,mutagenic call,[3],inactive; negative
same,mutagenic call,"Test System: AMES SALMONELLA TYPHIMURIUM, Strain/Indicator: TA98, Metabolic Activation: RAT, LIVER, S-9, AROCLOR 1254, Method: STANDARD PLATE",active; positive
same,mutagenic call,[4],active; positive
same,mutagenic call,[5],active; positive
same,mutagenic call,"Test System: AMES SALMONELLA TYPHIMURIUM, Strain/Indicator: TA100, Metabolic Activation: RAT, LIVER, S-9, AROCLOR 1254, Method: STANDARD PLATE",active; positive
same,mutagenic call,"Test System: UDS RAT PRIMARY HEPATOCYTES, Strain/Indicator: THY INCORP, Metabolic Activation: NONE",active; positive
Clc1cc2c(cc1Cl)Oc1cc(Cl)c(Cl)cc1O2,mutagenic call,"End Point: IN VITRO CHROMOSOMAL ABERRATIONS, Test System: CHINESE HAMSTER OVARY CELLS, Metabolic Activation: NONE",inactive; negative
same,mutagenic call,"End Point: IN VITRO CHROMOSOMAL ABERRATIONS, Test System: CHINESE HAMSTER OVARY CELLS, Metabolic Activation: RAT, LIVER, S-9, AROCLOR 1254",inactive; negative
same,mutagenic call,"Test System: AMES SALMONELLA TYPHIMURIUM, Strain/Indicator: TA97, Metabolic Activation: NONE, Method: PREINCUBATION",inactive; negative
same,mutagenic call,"Test System: AMES SALMONELLA TYPHIMURIUM, Strain/Indicator: TA97, Metabolic Activation: RAT, LIVER, S-9, AROCLOR 1254, Method: PREINCUBATION",inactive; negative
same,mutagenic call,[1],inactive; negative
same,mutagenic call,[3],inactive; negative
same,mutagenic call,[6],inactive; negative
same,mutagenic call,[5],inactive; negative
same,mutagenic call,"Test System: Ames Salmonella typhimurium, Strain/Indicator: TA98, Metabolic Activation: Hamster, Liver, S-9, Aroclor 1254, Method: Preincubation",inactive; negative
same,mutagenic call,"Test System: Ames Salmonella typhimurium, Strain/Indicator: TA98, Metabolic Activation: None, Method: Preincubation",inactive; negative
same,mutagenic call,"Test System: Ames Salmonella typhimurium, Strain/Indicator: TA98, Metabolic Activation: Rat, Liver, S-9, Aroclor 1254, Method: Preincubation",inactive; negative
same,mutagenic call,"Test System: Ames Salmonella typhimurium, Strain/Indicator: TA100, Metabolic Activation: Hamster, Liver, S-9, Aroclor 1254, Method: Preincubation",inactive; negative
same,mutagenic call,"Test System: Ames Salmonella typhimurium, Strain/Indicator: TA100, Metabolic Activation: None, Method: Preincubation",inactive; negative
same,mutagenic call,"Test System: Ames Salmonella typhimurium, Strain/Indicator: TA100, Metabolic Activation: Rat, Liver, S-9, Aroclor 1254, Method: Preincubation",inactive; negative
same,mutagenic call,"Test System: Ames Salmonella typhimurium, Strain/Indicator: TA1535, Metabolic Activation: Hamster, Liver, S-9, Aroclor 1254, Method: Preincubation",inactive; negative
same,mutagenic call,"Test System: Ames Salmonella typhimurium, Strain/Indicator: TA1535, Metabolic Activation: None, Method: Preincubation",inactive; negative
same,mutagenic call,"Test System: Ames Salmonella typhimurium, Strain/Indicator: TA1535, Metabolic Activation: Rat, Liver, S-9, Aroclor 1254, Method: Preincubation",inactive; negative
same,mutagenic call,"Test System: Ames Salmonella typhimurium, Strain/Indicator: TA1537, Metabolic Activation: Hamster, Liver, S-9, Aroclor 1254, Method: Preincubation",inactive; negative
same,mutagenic call,"Test System: Ames Salmonella typhimurium, Strain/Indicator: TA1537, Metabolic Activation: None, Method: Preincubation",inactive; negative
same,mutagenic call,"Test System: Ames Salmonella typhimurium, Strain/Indicator: TA1537, Metabolic Activation: Rat, Liver, S-9, Aroclor 1254, Method: Preincubation",inactive; negative
same,mutagenic call,"Test System: MOUSE LYMPHOMA, Strain/Indicator: L5178Y (TK+/TK-), Metabolic Activation: NONE, Method: SUSPENSION/PLATE",inactive; negative
same,mutagenic call,"Test System: MOUSE LYMPHOMA, Strain/Indicator: L5178Y (TK+/TK-), Metabolic Activation: RAT, LIVER, S-9, AROCLOR 1254, Method: SUSPENSION/PLATE",inactive; negative
CC(N)=O,mutagenic call,"End Point: IN VIVO MICRONUCLEUS, Test System: BLOOD ERYTHROCYTES, Species: MOUSE, Strain/Sex: CD-1/MALE, Route: INTRAPERITONEAL INJECTION",inactive; negative
same,mutagenic call,[2],inactive; negative
same,mutagenic call,"Test System: AMES SALMONELLA TYPHIMURIUM, Strain/Indicator: TA98, Metabolic Activation: RAT, LIVER, S-9, Method: STANDARD PLATE",inactive; negative
same,mutagenic call,[4],inactive; negative
same,mutagenic call,"Test System: AMES SALMONELLA TYPHIMURIUM, Strain/Indicator: TA100, Metabolic Activation: RAT, LIVER, S-9, Method: STANDARD PLATE",inactive; negative
same,mutagenic call,"Test System: Ames Salmonella typhimurium, Strain/Indicator: YG7108pin3ERb5, Metabolic Activation: None, Method: Standard plate",inactive; negative
COCC(O)Cn1cc([N+](=O)[O-])nc1C (stereo not given),mutagenic call,"Test System: E. COLI, Strain/Indicator: CM561 EXRA, Metabolic Activation: NONE, Method: SUSPENSION/PLATE",active; positive
same,mutagenic call,"Test System: E. COLI, Strain/Indicator: CM561 EXRA, Metabolic Activation: RAT, LIVER, S-9, AROCLOR 1254, Method: SUSPENSION/PLATE",inactive; negative
same,mutagenic call,"Test System: E. COLI, Strain/Indicator: CM611 UVRA EXRA, Metabolic Activation: NONE, Method: SUSPENSION/PLATE",active; positive
same,mutagenic call,"Test System: E. COLI, Strain/Indicator: CM611 UVRA EXRA, Metabolic Activation: RAT, LIVER, S-9, AROCLOR 1254, Method: SUSPENSION/PLATE",active; positive
CCOP(=S)(OCC)Oc1ccc([N+](=O)[O-])cc1,mutagenic call,[1],inactive; negative
same,mutagenic call,"Test System: AMES SALMONELLA TYPHIMURIUM, Strain/Indicator: TA98, Metabolic Activation: RAT, LIVER, S-9, KANECHLOR 500, Method: PREINCUBATION",inactive; negative
same,mutagenic call,[6],active; positive
same,mutagenic call,[4],inactive; negative
same,mutagenic call,"Test System: AMES SALMONELLA TYPHIMURIUM, Strain/Indicator: TA100, Metabolic Activation: RAT, LIVER, S-9, KANECHLOR 500, Method: PREINCUBATION",active; positive
same,mutagenic call,"Test System: AMES SALMONELLA TYPHIMURIUM, Strain/Indicator: TA100, Metabolic Activation: S-9, Method: STANDARD PLATE",active; positive
CCc1cccc(CC)c1NC(C)=O,mutagenic call,[1],inactive; negative
same,mutagenic call,"Test System: AMES SALMONELLA TYPHIMURIUM, Strain/Indicator: TA98, Metabolic Activation: RAT, LIVER, MICROSOMES, PHENOBARBITAL, Method: PREINCUBATION",inactive; negative
CC(C)(C)C1=CC(=O)C=C(C2=CC(=O)C=C(C(C)(C)C)C2=O)C1=O,mutagenic call,[1],active; positive
same,mutagenic call,[6],active; positive
